Experimental findings from the Kinase Knowledgebase extract (Sharma et al. 2016) are described below.

What is called IC50 is the concentration needed to halve the response being measured. A low value points to higher potency.

The target in the test is CDK2 (human) (UniProt P24941). The test can be described thus: Enzyme Assay.

Regarding `CCc1c(NC2CCCNC2)nc2ccnn2c1Nc1ccc(F)c(Cl)c1` (stereo not drawn), the IC50 was < 100 µM.
With `Cc1c(N[C@H]2CC[C@H](N)CC2)nc2ccnn2c1Nc1cccc(OCC(O)CO)c1` (stereo partly drawn), the 50% inhibitory concentration (IC50) is < 100 µM.
Consider `CCOc1ccc(Nc2c(C)c(N[C@H]3CC[C@H](N)CC3)nc3c(OC)cnn23)cc1`, for which the concentration for half-maximal inhibition (IC50) is < 100 µM.
Regarding `COc1ccc(-c2ccc(Nc3c(C)c(N[C@H]4CC[C@H](N)CC4)nc4ccnn34)cc2)cc1`, the IC50 is < 100 µM.
Take `CCc1c(N[C@H]2CC[C@H](N)CC2)nc2ccnn2c1Nc1cccc(Br)c1`: the IC50 is < 100 µM.
For `Cc1c(N[C@H]2CC[C@H](N)CC2)nc2ccnn2c1Nc1ccc(-c2ccncc2)cc1`, the IC50 is < 100 µM.
Consider `CCCc1c(N[C@H]2CC[C@H](N)CC2)nc2c(Br)cnn2c1Nc1ccc(F)c(Cl)c1`, for which the half-maximal inhibitory concentration (IC50) is < 100 µM.
For `Cc1c(N[C@H]2CC[C@H](N)CC2)nc2ccnn2c1Nc1ccc(-c2ccccc2)cc1`, the concentration for half-maximal inhibition (IC50) was < 100 µM.
Take `CCOc1ccc(Nc2c(C)c(N[C@@H]3CN[C@@H](C(=O)O)C3)nc3ccnn23)cc1`: the concentration for half-maximal inhibition (IC50) was < 100 µM.
On to `Cc1c(N[C@H]2CC[C@H](N)CC2)nc2ccnn2c1Nc1cccc(OCc2ccccc2)c1`, for which the IC50 was < 100 µM.
With `N[C@H]1CC[C@H](Nc2cc(NCc3ccc(F)c(Cl)c3)n3ncc(Br)c3n2)CC1`, the concentration for half-maximal inhibition (IC50) is < 100 µM.
Turning to `CCc1c(NC2CCNCC2)nc2ccnn2c1Nc1ccc(F)c(Cl)c1`, the IC50 is < 100 µM.
On to `CCOc1ccc(Nc2c(C)c(N[C@H]3CC[C@H](N)CC3)nc3c(C(=O)Nc4cc[nH]n4)cnn23)cc1`, for which the IC50 is < 100 µM.
`C=C(C)CNc1c(CC)c(N[C@H]2CC[C@H](N)CC2)nc2ccnn12`: the IC50 is < 100 µM.
On to `CCOc1ccc(Nc2c(C)c(N[C@H]3CC[C@H](N)CC3)nc3c(C(=O)Nc4cccnc4)cnn23)cc1`, for which the half-inhibitory concentration (IC50) was < 100 µM.
For the compound `N[C@H]1CC[C@H](Nc2nc3ccnn3c(Nc3ccc(F)c(Cl)c3)c2-c2ccccc2)CC1`, the IC50 was < 100 µM.
With `Cc1c(N[C@H]2CC[C@H](N)CC2)nc2ccnn2c1Nc1cccc(I)c1`, the IC50 was < 100 µM.
Next, `CCOc1cccc(Nc2cc(N[C@H]3CC[C@H](N)CC3)nc3c(C#N)cnn23)c1`: < 100 µM; `Cc1cc2cc(Nc3c(C)c(N[C@H]4CC[C@H](N)CC4)nc4ccnn34)ccc2[nH]1`: < 100 µM.
For `Cc1c(N[C@H]2CC[C@H](N)CC2)nc2c(C(=O)C(F)(F)F)cnn2c1Nc1ccc(I)cc1`, the half-maximal inhibitory concentration (IC50) is < 100 µM.
For the compound `CCOc1ccc(Nc2c(C)c(N[C@H]3CC[C@H](N)CC3)nc3c(C(=O)Nc4ccccc4)cnn23)cc1`, the half-maximal inhibitory concentration (IC50) was < 100 µM.
Consider `CCOc1ccc(Nc2c(C)c(N(CC)C3CCCNC3)nc3ccnn23)cc1` (stereo not drawn), for which the IC50 was < 100 µM.
Regarding `Cc1c(N[C@H]2CC[C@H](N)CC2)nc2ccnn2c1Nc1ccc(-c2cccnc2)cc1`, the IC50 was < 100 µM.
Take `Cc1c(N[C@H]2CC[C@H](N)CC2)nc2ccnn2c1Nc1ccc(-c2cccc(N)c2)cc1`: the IC50 was < 100 µM.
Turning to `Cc1c(N[C@H]2CC[C@H](N)CC2)nc2ccnn2c1Nc1cccc(OCCC2CCCCC2)c1`, the IC50 was < 100 µM.
Next, `CCOc1ccc(Nc2c(C)c(N[C@H]3CCNC3)nc3ccnn23)cc1`: < 100 µM; `Cc1c(N[C@H]2CC[C@H](N)CC2)nc2ccnn2c1Nc1ccc(-c2cccc(OC(F)(F)F)c2)cc1`: < 100 µM; `CCOc1ccc(Nc2c(C)c(N[C@H]3CC[C@H](N)CC3)nc3c(CC)cnn23)cc1`: < 100 µM.
Regarding `Cc1c(N[C@H]2CC[C@H](N)CC2)nc2ccnn2c1Nc1cccc(OCC2CCCC2)c1`, the IC50 is < 100 µM.
Next, `Cc1c(N[C@H]2CC[C@H](N)CC2)nc2ccnn2c1Nc1ccc(OC2CCCC2)cc1`: < 100 µM; `Cc1nn2c(Nc3ccc(F)c(Cl)c3)cc(N[C@H]3CC[C@H](N)CC3)nc2c1Br`: < 100 µM; `COc1cccc(-c2ccc(Nc3c(C)c(N[C@H]4CC[C@H](N)CC4)nc4ccnn34)cc2)c1`: < 100 µM.
As for `Cc1c(N[C@H]2CC[C@H](N)CC2)nc2ccnn2c1Nc1ccc(OCCC2CCCCN2)cc1` (stereo partly drawn), the IC50 is < 100 µM.
